Consider 18 compounds from US20030194378A1, “Novel aerosol formulation containing a polar fluorinated molecule” (priority 2000, published 2003).

A short description of series [1]: Miscibility or solubility of fluorinated molecules in propellants. The settings on record: for Concentration (C, in brackets) at which the miscibility or solubility test was done, HFA-134a / Concentration (C, in brackets) at which the miscibility or solubility test was done, HFA-227: solutions below this are monophasic, not an upper limit; for Miscibility or solubility, HFA-134a: in propellant HFA-134a, at the concentration in brackets; for Miscibility or solubility, HFA-227: in propellant HFA-227, at the concentration in brackets.
Source text: The fluorinated chemical was weighed in a clear PET vial. The vial was then crimped, and subsequently pressure filled with one of the propellants until the desired total weight was reached.
Solutions at concentrations below these limits are therefore monophasic. The concentrations quoted are not upper limits.

Series [2] in a line: Solubility of selected excipients in 4HPFOH. To be noted: for Concentration % w/w (at which solubility in 4HPFOH was assessed): excipient in 4HPFOH; for Solubility or miscibility in 4HPFOH: excipient in 4HPFOH at the concentration of the same line, sonicated, heated, cooled.
Procedure: The second test carried out was to evaluate the solubility (or miscibility in the case of liquid samples) of some excipients in 4HPFOH.
The excipients were weighed in glass vials with a screw-on plastic cap. 4HPFOH was added at the required concentration, and the vial sealed with Teflon tape and the screw-on cap. The sample was sonicated and heated to quicken the solubilisation of the excipient. The vial was then allowed to cool down.
Series [3] can be described thus: Solubility of drug compounds in 4HPFOH (optical, UV-Vis). In kind it is physicochemical. Here is the method:
Although most drug compounds are insoluble in the fluorinated systems, in some instances it is possible to solubilise the drug.
Drug suspensions were prepared in sealed glass vials by weight. The suspensions were then allowed to rest over a couple of day to reach equilibrium. They were firstly assessed optically, and in the case of a possible solubility by UV-vis spectroscopy. The solutions were then filtered with 0.2 μm PTFE filters and studied by UV-Vis spectroscopy between 280 nm and 350 nm. A range of suspensions were prepared, to be able to reach saturation levels. Calibration curves were then drawn by plotting the absorbance as a function of concentration. The inflexion point at which the slope of the calibration plot changed was taken as the solubility limit. The experiment was carried out at least 3 times for each drug.

Structures can show the parent of a compound that is named as a salt. Where two headings read alike, the source gives them in different places.

With `COC(=O)C(F)(OC(F)(F)C(F)(OC(F)(F)C(F)(OC(F)(F)C(F)(OC(F)(F)C(F)(F)C(F)(F)F)C(F)(F)F)C(F)(F)F)C(F)(F)F)C(F)(F)F` (centres unmarked) [Methyl perfluoro 2,5,9,11-Tetramethyl 3,6,9,12 Tetraoxapentadecanoate], in series [1], the “Concentration (C, in brackets) at which the miscibility or solubility test was done, HFA-134a” value (from here on “Concentration (C, in brackets) … HFA-134a”) is given as “(C <10.37% w/w)”; the “Concentration (C, in brackets) at which the miscibility or solubility test was done, HFA-227” value (“Concentration (C, in brackets) … HFA-227” below) was below 8.90 % w/w; the “Miscibility or solubility, HFA-134a” value is “Yes”; the “Miscibility or solubility, HFA-227” value is “Yes”.
As to `OCC(O)CC(F)(F)C(F)(F)C(F)(F)C(F)(F)C(F)(F)C(F)(F)F` (centres unmarked) [1H,1H,2H,3H,3H Perfluoro-1,2-nonandiol], in series [1], the “Concentration (C, in brackets) … HFA-134a” value was “(C <4.84% w/w)”; the “Concentration (C, in brackets) … HFA-227” value is listed as below 3.71 % w/w; the “Miscibility or solubility, HFA-134a” value is “Yes”; the “Miscibility or solubility, HFA-227” value is “Yes”.
With `O=C(OC(=O)C(F)(F)C(F)(F)C(F)(F)C(F)(F)C(F)(F)C(F)(F)F)C(F)(F)C(F)(F)C(F)(F)C(F)(F)C(F)(F)C(F)(F)F` [Perfluoroheptanoic anhydride], in series [1], the “Concentration (C, in brackets) … HFA-134a” value is recorded as “(C <9.89% w/w)”; the “Concentration (C, in brackets) … HFA-227” value is below 9.13 % w/w; the “Miscibility or solubility, HFA-134a” value is “Yes”; the “Miscibility or solubility, HFA-227” value was “Yes”.
For `CCCCCCCCCCCC[N+](C)(C)C.[Br-]` [Dodecyltrimethyl Ammonium Bromide], in series [2], the “Concentration % w/w (at which solubility in 4HPFOH was assessed)” value (from here on “Concentration % w/w”) turned out to be 1.00 % w/w and the “Solubility or miscibility in 4HPFOH” value is recorded as “Yes”.
As for `COc1ccc(CC(C)NCC(O)c2ccc(O)c(NC=O)c2)cc1` (centres unmarked) [Formoterol Fumarate Dihydrate], the “Solubility in 4HPFOH (in words)” value in series [3] (in 4HPFOH, equilibrated a couple of days) is given as “insoluble”.
Regarding `CCCCC(CC)COC(=O)CC(C(=O)OCC(CC)CCCC)S(=O)(=O)[O-].[Na+]` (centres unmarked) [Dioctyl-sulfosuccinate sodium salt], in series [2], the “Concentration % w/w” value amounted to 0.096 % w/w and the “Solubility or miscibility in 4HPFOH” value was “Yes”.
Turning to `CCCCCCCCO[C@@H]1O[C@H](CO)[C@@H](O)[C@H](O)[C@H]1O` [N Octyl beta D Glucopyranoside], in series [2], the “Concentration % w/w” value was 0.11 % w/w and the “Solubility or miscibility in 4HPFOH” value is “Yes”.
As to `CCOC(=O)C(F)(F)C(F)(F)C(F)(F)C(F)(F)C(F)(F)C(F)(F)C(F)(F)C(F)(F)C(F)(F)C(F)F` [Ethyl 11H-Perfluoroundecanoate], in series [1], the “Concentration (C, in brackets) … HFA-134a” value is “(C <4.93% w/w)”; the “Concentration (C, in brackets) … HFA-227” value is recorded as below 4.43 % w/w; the “Miscibility or solubility, HFA-134a” value is “Yes”; the “Miscibility or solubility, HFA-227” value is on record as “Yes”.
Regarding `C[C@H](CCC(=O)O)[C@H]1CC[C@H]2[C@@H]3CC[C@@H]4C[C@H](O)CC[C@]4(C)[C@H]3C[C@H](O)[C@]12C` [Deoxycholic acid], in series [2], the “Concentration % w/w” value was determined as 0.90 % w/w and the “Solubility or miscibility in 4HPFOH” value is “Yes”.
As to `Cc1ccc(CCOCCNS(=O)(=O)CCCNCCc2ccc(O)c3nc(O)sc23)cc1` [3-[2-(4-hydroxy-2-oxo-3H-1,3-benzothiazol-7-yl)ethylamino]-N-[2-[2-(4-methylphenyl)ethoxy)ethyl]propansulphonamide], in series [3], the “Solubility in 4HPFOH” value is on record as “less than 0.1 ppm(w/w)” and the “Solubility in 4HPFOH (in words)” value is on record as “insoluble”.
Take `OCCC(F)(F)C(F)(F)C(F)(F)C(F)(F)C(F)(F)C(F)(F)F` [1H,1H,2H,2H Perfluorooctan-1-ol]: in series [1], the “Concentration (C, in brackets) … HFA-134a” value is listed as “(C <7.30% w/w)”; the “Concentration (C, in brackets) … HFA-227” value is below 5.17 % w/w; the “Miscibility or solubility, HFA-134a” value is “Yes”; the “Miscibility or solubility, HFA-227” value is “Yes”.
In the case of `FC(OC(F)(F)C(F)(OC(F)(F)C(F)(OC(F)(F)C(F)(OC(F)(F)C(F)(F)C(F)(F)F)C(F)(F)F)C(F)(F)F)C(F)(F)F)C(F)(F)F` (centres unmarked) [2H Perfluoro-5,8,11-trimethyl-3,6,9,12-tetrafluoropropylether], in series [1], the “Concentration (C, in brackets) … HFA-134a” value was “(C <43.49% w/w)”; the “Concentration (C, in brackets) … HFA-227” value was “(C <35.36% w/w)”; the “Miscibility or solubility, HFA-134a” value is “Yes”; the “Miscibility or solubility, HFA-227” value is “Yes”.
For `CCOC(=O)C(F)(F)C(F)(F)C(F)(F)C(F)(F)C(F)(F)C(F)(F)C(F)(F)C(F)(F)C(F)(F)C(F)(F)C(F)(F)F` [Ethyl Perfluoro n-Dodecanoate], in series [1], the “Concentration (C, in brackets) … HFA-134a” value is given as “(C <9.24% w/w)”; the “Concentration (C, in brackets) … HFA-227” value is “(C <41.15% w/w)”; the “Miscibility or solubility, HFA-134a” value was “Yes”; the “Miscibility or solubility, HFA-227” value is “Yes”.
Regarding `CC(C)(C)NCC(O)c1cc(O)cc(O)c1` (centres unmarked) [Terbutaline Sulphate], in series [3], the “Solubility in 4HPFOH” value is recorded as “less than 0.1 ppm(w/w)” and the “Solubility in 4HPFOH (in words)” value is on record as “insoluble”.
For `CCCCCCCCC[N+](C)(C)C.[Br-]` [Nonyltrimethyl Ammonium Bromide], in series [2], the “Concentration % w/w” value came out at 0.96 % w/w and the “Solubility or miscibility in 4HPFOH” value is reported as “Yes”.
As for `CCCC1O[C@@H]2C[C@H]3[C@@H]4CCC5=CC(=O)C=C[C@]5(C)[C@H]4[C@@H](O)C[C@]3(C)[C@]2(C(=O)CO)O1` (some centres unmarked) [Budesonide], in series [3], the “Solubility in 4HPFOH (in words)” value was “soluble” and the “Solubility limit in 4HPFOH” value was 0.219-0.246 % w/w.
In the case of `OCC(F)(F)C(F)(F)C(F)(F)C(F)(F)C(F)(F)C(F)(F)C(F)(F)C(F)(F)F` [1H,1H, Perfluorononan-1-ol], in series [1], the “Concentration (C, in brackets) … HFA-134a” value is given as “(C <4.55% w/w)”; the “Concentration (C, in brackets) … HFA-227” value is reported as below 4.15 % w/w; the “Miscibility or solubility, HFA-134a” value is “Yes”; the “Miscibility or solubility, HFA-227” value is on record as “Yes”.
`COC(=O)C(F)(F)C(F)(F)C(F)(F)C(F)(F)C(F)(F)C(F)(F)C(F)(F)C(F)(F)C(F)(F)F` [Methyl Perfluorodecanoate]: in series [1], the “Concentration (C, in brackets) … HFA-134a” value is listed as “(C <42.63% w/w)”; the “Concentration (C, in brackets) … HFA-227” value is recorded as “(C <39.40% w/w)”; the “Miscibility or solubility, HFA-134a” value is given as “Yes”; the “Miscibility or solubility, HFA-227” value is “Yes”.
